# Patent publication US20080260695A1, “Composition for prevention and/or treatment of cancer” (MICROBIO COMPANY LTD., priority 2007, published 2008)
# Test system: colorectal cancer cell (HT-29)
# Experiment: MTT assay, relative survival rate of colorectal cancer cell line
# Type: cell-based
# Conditions: HT-29, 24 hours, control 100%
# Method: The six components (fermented soy extract (Microbio Biotechnology®), oligomeric proanthocyanidin, epigallocatiechin gallate, spirulina, curcumin, and Antrodia camphorata) of Example 1 were classified to seven groups; the content of each group is listed in Table 2. Each group was respectively diluted 300×, 600×, 1200×, and 2400× with McCoy's 5a medium, and then colorectal cancer cell (HT-29, 80000 cell/well) line was treated with the diluted group A to group G. After 24 hours, the relative survival rates of the colorectal cancer cell line were detected by MTT assay. In a control group, the relative survival rate was 100%.
# [1] = 300 × dilution in McCoy's 5a medium
# [2] = 600 × dilution in McCoy's 5a medium
# [3] = 1200 × dilution in McCoy's 5a medium
# [4] = 2400 × dilution in McCoy's 5a medium
Compound,Relatively survival rate (%) [1] [%],Relatively survival rate (%) [2] [%],Relatively survival rate (%) [3] [%],Relatively survival rate (%) [4] [%]
epigallocatiechin gallate [Group B],23,50,66,81
"COc1cc(/C=C/C(=O)CC(=O)/C=C/c2ccc(O)c(OC)c2)ccc1O [Group C, curcumin]",18,31,45,71
